Experimental data reported in US20090211893A1, “Photo-Activatable Amino Acids” (priority 2005, published 2009).

Assays:
HA-tagged human PGRMC1 = assay: Competition of PGRMC1 cross-linking by natural amino acids; type: cell-based; details: 3 mM competing amino acid, COS7 cells in LM-4
Protocol: FIG. 4: Specificity of incorporation and cross-linking by photo-Met and photo-Leu. COS7 cells were transfected with HA-tagged human PGRMC1 and were grown in LM-4 in the absence or presence of photo-Leu (A) or photo-Met (B) with addition of 3 mM of the indicated competing amino acid. cross-linked products formed after UV-irradiation were detected by SDS-PAGE followed by western blotting against the HA-epitope. (C) COS7 cells were grown in the presence of 1.7 mM [1-^14C]photo-Met, a constant trace amount of [^3H]Phe and 3 mM of competing unlabeled amino acids as indicated in the legend. Protein was precipitated and protein-bound radioactivity was determined by scintillation counting. […] The control value obtained in the absence of competing amino acid (con) is set to 100. Data are average±SD of triplicate determinations.
If so, addition of the complementary naturally occurring amino acid should strongly reduce incorporation and inhibit photo-crosslinking. […] To find out if competition for cross-linking reflects competition for incorporation, we competed incorporation of [1-^14C]photo-Met with the same set of amino acids (FIG. 4c). […] It should be noted that Met, Val, Leu and Ile all are transported into cells by the L-type transport system^25, which presumably also transports the three photo-amino acids. The strong difference in competition by Met and Leu versus Val and Ile excludes competition at the level of uptake.

COS7 cells [1] = assay: Incorporation of [1-14C]photo-Met and [3H]Phe into newly synthesized protein; type: cell-based, monkey
Protocol: Cells were washed 6 times with PBS and lysed in 0.5% Triton X-100, 0.2% sodium deoxycholate. Aggregated DNA was removed, protein was precipitated^43, the pellet was redissolved in 0.3 ml 0.5% SDS and subjected to a second round of precipitation. […] The dried pellet was redissolved and processed for scintillation counting (data of Table 1 and FIG. 4b) or processed as follows for amino acid analysis (FIG. 2b): the pellet was dissolved in 600 µl 50 mM NH4HCO3, 0.5% SDS, 3 mM CaCl2 containing 0.25 mg pronase (Roche) followed by incubation at 37° C. for 20 h. The sample was lyophilized, dissolved in 600 μl of 7 N HCl containing 4 mg of glutamic acid and 6 mg of photo-Met and heated to 70° C. for 24 h. A Dowex 50WX8 column (1.6×24 cm) was prepared^18 and equilibrated with 0.1 M sodium citrate pH 3.8. The sample was concentrated to 50 μl in a speed-vak, diluted to 1 ml with 0.1 M sodium citrate pH 3.8, and loaded onto the column. The column was eluted at 24° C. at a flow rate of 20 ml/h with 70 ml 0.1 M sodium citrate pH 3.8, 26 ml 0.1 M sodium citrate pH 4.3 and 100 ml of 0.1 M sodium citrate pH 4.5. Fractions of 3 ml were collected and assayed for absorbance at 350 nm, radioactivity by scintillation counting, and amino groups by the fluorescamine method^44.
To decrease competition for activation by tRNA synthetases, media devoid of the structurally related amino acids Leu and Met (LM-2) or, for some experiments, devoid of Leu, Met, Ile and Val (LM-4) were used. Proteins incorporated radioactivity as shown by autoradiography after separation by SDS-PAGE (FIG. 2a, lane 3). […] 88% of the radioactivity in the labeled proteins was intact [1-^14C]photo-Met (FIG. 2b, photo-Met). A small peak eluting slightly earlier than glutamic acid (FIG. 2 B, Glu) contained 7% of the radioactivity. This peak was also observed if free [1-^14C]photo-Met was heated with HCl under the conditions of the hydrolysis (data not shown) and therefore represents a product of thermal decomposition of the amino acid. Under the conditions employed, radioactivity originating from degradation/re-integration would be expected to appear as aspartate and glutamate (oxidative release of [^14C]CO2, metabolism via pyruvate carboxylase, citric acid cycle and transamination to Gln and Asn that will be hydrolyzed to Glu and Asp by hot HCl). However, no radioactivity was incorporated via this pathway. We conclude that at least 95% of incorporated radioactivity represents intact [1-^14C]photo-Met. To obtain quantitative data on the frequency of incorporation of photo-Met into newly synthesized protein, we performed co-labeling with [1-^14C]photo-Met and [^3H]Phe. […] Two in three hundred amino acids in newly synthesized protein will be photo-Met.

COS7 cells [2] = assay: Cell viability after UV irradiation by trypan blue exclusion; type: cell-based, monkey

Question: Which results are given for `CC1(CCC(N)C(=O)O)N=N1` [photo-Met, L-2-amino-5,5′-azi-hexanoic acid]?
Answer: competition of cross-linking by Met, Val, Leu and Ile (HA-tagged human PGRMC1): mainly by Met, and to a lower extent by Leu; effect of Val and Ile on cross-linking (HA-tagged human PGRMC1): did not compete, but even enhance; frequency of substitution of photo-Met for Met (COS7 cells [1]): 35%; Cell viability (COS7 cells [2]; 10 min UV): 99.4 ± 0.3%; Cell viability (COS7 cells [2]; 10 min UV + 1 h chase): 91.9 ± 1.4%; Cell viability (COS7 cells [2]; 30 min UV): 98.7 ± 0.4%; Cell viability (COS7 cells [2]; 30 min UV + 1 h chase): 17.4 ± 5.3%
